Measured values from PubChem BioAssay (NCI).
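Tested at 5 concentrations; 48 h exposure; 96-well plates; endpoints linearly interpolated, else capped at highest concentration. At the GI50, growth is halved. Definition used: TGI = concentration required for complete inhibition of growth.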

Key:
Assay in all cases: growth of human tumour cells (NCI), 48 h
[1] = test system: SN12C renal
[2] = test system: IGROV1 ovarian
[3] = test system: KM12 colon
[4] = test system: RXF 393 renal
[5] = test system: HL-60(TB) leukemia
[6] = test system: HT29 colon
[7] = test system: K-562 leukemia
[8] = test system: M14 melanoma
[9] = test system: RPMI-8226 leukemia
[10] = test system: MALME-3M melanoma

| SMILES | TGI [1] [µM] | TGI [2] [µM] | TGI [3] [µM] | TGI [4] [µM] | TGI [5] [µM] | TGI [6] [µM] | TGI [7] [µM] | TGI [8] [µM] | TGI [9] [µM] | TGI [10] [µM] | GI50 [1] [µM] | GI50 [2] [µM] | GI50 [3] [µM] | GI50 [4] [µM] | GI50 [5] [µM] | GI50 [6] [µM] | GI50 [7] [µM] | GI50 [9] [µM] | GI50 [10] [µM] |
| --- | --- | --- | --- | --- | --- | --- | --- | --- | --- | --- | --- | --- | --- | --- | --- | --- | --- | --- | --- |
| CCN(CCO)C(=O)C1(c2ccccc2)CCCCC1 | > 10 | > 10 | > 10 | > 10 | > 10 | > 10 | > 10 | > 10 | > 10 | > 10 | – | – | – | – | – | – | – | – | – |
| Ic1ccc2c(c1)N(c1ccccc1)c1cc(N=c3ccc4nc5ccc(I)cc5n(-c5ccccc5)c-4c3)ccc1N2 | > 100 | > 100 | > 100 | > 100 | 58.2 | 73.1 | > 100 | 80.1 | > 100 | > 100 | – | – | – | – | – | – | – | – | – |
| OCCCNc1nc(=S)[nH]c2[nH]ncc12 | > 100 | > 100 | > 100 | > 100 | > 100 | > 100 | > 100 | – | > 100 | > 100 | 41 | 29.9 | 38.1 | 44.3 | > 100 | 54.8 | 44.5 | 80.8 | 48.3 |
| CC(CCC(=O)O)(c1ccc(O)cc1)c1ccc(O)cc1 | > 100 | > 100 | > 100 | > 100 | – | > 100 | > 100 | > 100 | – | > 100 | – | – | – | – | – | – | – | – | – |
| C[N+](C)(C)CCCSc1nc2ccccc2[nH]1 | > 100 | > 100 | > 100 | > 100 | > 100 | > 100 | > 100 | > 100 | > 100 | > 100 | – | – | – | – | – | – | – | – | – |
| O=S(=O)(O)C1=C2Sc3ccccc3N=C2c2ccccc2C1 | 26.8 | 28.1 | 29.5 | 35.1 | 21.2 | 40 | 36.1 | 25.5 | 38.6 | 30 | – | – | – | – | – | – | – | – | – |
| COc1ccc(CC2CCc3nc(N)nc(N)c3C2)cc1OC (stereo not drawn) | > 100 | > 64 | > 100 | 0.81 | > 100 | > 24.5 | > 100 | > 39.5 | > 100 | 23.2 | – | – | – | – | – | – | – | – | – |
| c1nc(N2CC2)c2cnn(C3CCCCO3)c2n1 (stereo not drawn) | > 100 | > 100 | > 100 | > 100 | > 100 | > 100 | > 100 | > 100 | > 100 | > 100 | – | – | – | – | – | – | – | – | – |
| CN(CCC(=O)O)C1=Nc2ccc(Cl)cc2C(c2ccccc2)=[N+]([O-])C1 | > 100 | > 100 | > 100 | > 100 | > 100 | > 100 | > 100 | > 100 | > 100 | > 100 | – | – | – | – | – | – | – | – | – |
| CCOC(=O)NC(=O)c1cn(CCNCCO)c(=O)[nH]c1=O | > 100 | > 100 | > 100 | – | > 100 | > 100 | > 100 | > 100 | > 100 | > 100 | – | – | – | – | – | – | – | – | – |
| O=C(N/N=C/C=C/c1ccccc1)[C@H](O)[C@@H](O)C(=O)N/N=C/C=C/c1ccccc1 | > 100 | > 100 | > 100 | > 100 | > 100 | – | > 100 | – | > 100 | > 100 | – | – | – | – | – | – | – | – | – |
| C[C@]12CC[C@H](OC(=O)Cc3ccc(N(CCCl)CCCl)cc3)CC1=CC[C@@H]1[C@@H]2CC[C@]2(C)C(=O)CC[C@@H]12 | > 100 | > 100 | > 100 | > 100 | > 100 | > 100 | > 100 | > 100 | > 100 | > 100 | – | – | – | – | – | – | – | – | – |
| CN1CCN(c2ccc3[nH]c(-c4cc(O)c5c(nc(CO)n5C)c4O)nc3n2)CC1 | 36.8 | > 100 | > 100 | > 100 | 47.2 | > 100 | > 100 | > 100 | > 100 | 65.4 | – | – | – | – | – | – | – | – | – |
| O=C(O)CCC(=O)Nc1ccc2ccccc2c1 | > 100 | > 100 | > 100 | > 100 | > 100 | > 100 | > 100 | > 100 | > 100 | > 100 | – | – | – | – | – | – | – | – | – |
